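Tested at 5 concentrations; 48 h exposure; 96-well plates; endpoints linearly interpolated, else capped at highest concentration. GI50: concentration for 50% inhibition of growth. TGI marks complete inhibition of growth.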
Tests used:
Test in all cases: growth of human tumour cells (NCI), 48 h
HCC-2998 colon = system: HCC-2998 colon
UACC-62 melanoma = system: UACC-62 melanoma
TK-10 renal = system: TK-10 renal
U251 CNS = system: U251 CNS
HCT-15 colon = system: HCT-15 colon
A498 renal = system: A498 renal
HOP-62 NSCLC = system: HOP-62 NSCLC
BT-549 breast = system: BT-549 breast
NCI-H522 lung = system: NCI-H522 lung
LOX IMVI melanoma = system: LOX IMVI melanoma
CCRF-CEM leukemia = system: CCRF-CEM leukemia
MOLT-4 leukemia = system: MOLT-4 leukemia
UACC-257 melanoma = system: UACC-257 melanoma
A549 NSCLC = system: A549 NSCLC
NCI/ADR-RES ovarian = system: NCI/ADR-RES ovarian
PC-3 prostate = system: PC-3 prostate
NCI-H23 lung = system: NCI-H23 lung
SK-MEL-2 melanoma = system: SK-MEL-2 melanoma
RXF 393 renal = system: RXF 393 renal
RPMI-8226 leukemia = system: RPMI-8226 leukemia
SK-MEL-28 melanoma = system: SK-MEL-28 melanoma
SNB-75 CNS = system: SNB-75 CNS
MALME-3M melanoma = system: MALME-3M melanoma
SW-620 colon = system: SW-620 colon
CAKI-1 renal = system: CAKI-1 renal
MDA-MB-231 breast = system: MDA-MB-231 breast
OVCAR-5 ovarian = system: OVCAR-5 ovarian
HCT-116 colon = system: HCT-116 colon
NCI-H460 lung = system: NCI-H460 lung
DU-145 prostate = system: DU-145 prostate
OVCAR-3 ovarian = system: OVCAR-3 ovarian
COLO 205 colon = system: COLO 205 colon
NCI-H226 lung = system: NCI-H226 lung
HOP-92 NSCLC = system: HOP-92 NSCLC
SN12C renal = system: SN12C renal
HT29 colon = system: HT29 colon
SK-MEL-5 melanoma = system: SK-MEL-5 melanoma
OVCAR-4 ovarian = system: OVCAR-4 ovarian
786-0 renal = system: 786-0 renal
UO-31 renal = system: UO-31 renal
SF-539 CNS = system: SF-539 CNS
SK-OV-3 ovarian = system: SK-OV-3 ovarian
SF-295 CNS = system: SF-295 CNS
K-562 leukemia = system: K-562 leukemia
OVCAR-8 ovarian = system: OVCAR-8 ovarian
KM12 colon = system: KM12 colon
ACHN renal = system: ACHN renal
HS 578T breast = system: HS 578T breast
SNB-19 CNS = system: SNB-19 CNS
IGROV1 ovarian = system: IGROV1 ovarian
MDA-MB-435 = system: MDA-MB-435
SR leukemia = system: SR leukemia
M14 melanoma = system: M14 melanoma
T-47D breast = system: T-47D breast
MCF7 breast = system: MCF7 breast
SF-268 CNS = system: SF-268 CNS

**Q.** Which GI50 (HCC-2998 colon) does the source give for O=C(Nc1ccc(OCc2nnc(-c3ccc(Cl)cc3)o2)c(F)c1)Nc1ccc(Cl)c(Cl)c1 here?
**A.** 20.7 µM

**Q.** And the TGI (HCC-2998 colon)?
**A.** > 100 µM

**Q.** And the GI50 (UACC-62 melanoma)?
**A.** 5.84 µM

**Q.** What about the TGI (UACC-62 melanoma) of the same compound?
**A.** 39 µM

**Q.** And the GI50 (TK-10 renal)?
**A.** 4.78 µM

**Q.** And the TGI (TK-10 renal)?
**A.** 22.9 µM

**Q.** What about the GI50 (U251 CNS) of the same compound?
**A.** 4.08 µM

**Q.** What about the TGI (U251 CNS) of the same compound?
**A.** 25 µM

**Q.** And the GI50 (HCT-15 colon)?
**A.** 15 µM

**Q.** And the TGI (HCT-15 colon)?
**A.** > 100 µM

**Q.** And the GI50 (A498 renal)?
**A.** 1.56 µM

**Q.** And the TGI (A498 renal)?
**A.** 21.9 µM

**Q.** And the GI50 (HOP-62 NSCLC)?
**A.** 3.6 µM

**Q.** What about the TGI (HOP-62 NSCLC) of the same compound?
**A.** 19.5 µM

**Q.** What about the GI50 (BT-549 breast) of the same compound?
**A.** 7.11 µM

**Q.** And the TGI (BT-549 breast)?
**A.** 29.7 µM

**Q.** And the GI50 (NCI-H522 lung)?
**A.** 6.06 µM

**Q.** And the TGI (NCI-H522 lung)?
**A.** 52.1 µM

**Q.** And the GI50 (LOX IMVI melanoma)?
**A.** 3.3 µM

**Q.** And the TGI (LOX IMVI melanoma)?
**A.** 13.2 µM

**Q.** What about the GI50 (CCRF-CEM leukemia) of the same compound?
**A.** 7.09 µM

**Q.** What about the TGI (CCRF-CEM leukemia) of the same compound?
**A.** 68.6 µM

**Q.** And the GI50 (MOLT-4 leukemia)?
**A.** 12.9 µM

**Q.** What about the TGI (MOLT-4 leukemia) of the same compound?
**A.** 53.1 µM

**Q.** And the GI50 (UACC-257 melanoma)?
**A.** 10.6 µM

**Q.** And the TGI (UACC-257 melanoma)?
**A.** > 100 µM

**Q.** And the GI50 (A549 NSCLC)?
**A.** 6.07 µM

**Q.** What about the TGI (A549 NSCLC) of the same compound?
**A.** 47.1 µM

**Q.** What about the GI50 (NCI/ADR-RES ovarian) of the same compound?
**A.** 10 µM

**Q.** And the TGI (NCI/ADR-RES ovarian)?
**A.** 41.3 µM

**Q.** And the GI50 (PC-3 prostate)?
**A.** 6.16 µM

**Q.** And the TGI (PC-3 prostate)?
**A.** 29.9 µM

**Q.** What about the GI50 (NCI-H23 lung) of the same compound?
**A.** 4.62 µM

**Q.** And the TGI (NCI-H23 lung)?
**A.** 20.6 µM

**Q.** And the GI50 (SK-MEL-2 melanoma)?
**A.** 9.23 µM

**Q.** And the TGI (SK-MEL-2 melanoma)?
**A.** 37 µM

**Q.** What about the GI50 (RXF 393 renal) of the same compound?
**A.** 6.78 µM

**Q.** What about the TGI (RXF 393 renal) of the same compound?
**A.** 24.2 µM

**Q.** What about the GI50 (RPMI-8226 leukemia) of the same compound?
**A.** 10.7 µM

**Q.** And the TGI (RPMI-8226 leukemia)?
**A.** 56.6 µM

**Q.** What about the GI50 (SK-MEL-28 melanoma) of the same compound?
**A.** 5.17 µM

**Q.** What about the TGI (SK-MEL-28 melanoma) of the same compound?
**A.** 28.6 µM

**Q.** And the GI50 (SNB-75 CNS)?
**A.** 1.72 µM

**Q.** What about the TGI (SNB-75 CNS) of the same compound?
**A.** 4.88 µM

**Q.** What about the GI50 (MALME-3M melanoma) of the same compound?
**A.** 2.76 µM

**Q.** What about the TGI (MALME-3M melanoma) of the same compound?
**A.** 8.77 µM

**Q.** What about the GI50 (SW-620 colon) of the same compound?
**A.** 6.77 µM

**Q.** What about the TGI (SW-620 colon) of the same compound?
**A.** 67.9 µM

**Q.** And the GI50 (CAKI-1 renal)?
**A.** 21.7 µM

**Q.** And the TGI (CAKI-1 renal)?
**A.** > 100 µM

**Q.** What about the GI50 (MDA-MB-231 breast) of the same compound?
**A.** 5.39 µM

**Q.** What about the TGI (MDA-MB-231 breast) of the same compound?
**A.** 41.1 µM

**Q.** What about the GI50 (OVCAR-5 ovarian) of the same compound?
**A.** 22.5 µM

**Q.** What about the TGI (OVCAR-5 ovarian) of the same compound?
**A.** > 100 µM

**Q.** And the GI50 (HCT-116 colon)?
**A.** 5.01 µM

**Q.** And the TGI (HCT-116 colon)?
**A.** > 100 µM

**Q.** What about the GI50 (NCI-H460 lung) of the same compound?
**A.** 3.9 µM

**Q.** What about the TGI (NCI-H460 lung) of the same compound?
**A.** 25 µM

**Q.** And the GI50 (DU-145 prostate)?
**A.** 5.07 µM

**Q.** What about the TGI (DU-145 prostate) of the same compound?
**A.** 21.3 µM

**Q.** What about the GI50 (OVCAR-3 ovarian) of the same compound?
**A.** 10.7 µM

**Q.** What about the TGI (OVCAR-3 ovarian) of the same compound?
**A.** 35 µM

**Q.** And the GI50 (COLO 205 colon)?
**A.** 6.94 µM

**Q.** And the TGI (COLO 205 colon)?
**A.** > 100 µM

**Q.** And the GI50 (NCI-H226 lung)?
**A.** 5.94 µM

**Q.** What about the TGI (NCI-H226 lung) of the same compound?
**A.** 56.1 µM

**Q.** What about the GI50 (HOP-92 NSCLC) of the same compound?
**A.** 2.39 µM

**Q.** And the TGI (HOP-92 NSCLC)?
**A.** 8.27 µM

**Q.** And the GI50 (SN12C renal)?
**A.** 11.3 µM

**Q.** And the TGI (SN12C renal)?
**A.** > 100 µM

**Q.** What about the GI50 (HT29 colon) of the same compound?
**A.** 6.24 µM

**Q.** What about the TGI (HT29 colon) of the same compound?
**A.** > 100 µM

**Q.** And the GI50 (SK-MEL-5 melanoma)?
**A.** 6.6 µM

**Q.** And the TGI (SK-MEL-5 melanoma)?
**A.** 45.4 µM

**Q.** And the GI50 (OVCAR-4 ovarian)?
**A.** 2.99 µM

**Q.** And the TGI (OVCAR-4 ovarian)?
**A.** 14.1 µM

**Q.** What about the GI50 (786-0 renal) of the same compound?
**A.** 12.5 µM

**Q.** And the TGI (786-0 renal)?
**A.** 42.7 µM

**Q.** And the GI50 (UO-31 renal)?
**A.** 13.5 µM

**Q.** And the TGI (UO-31 renal)?
**A.** 49.3 µM

**Q.** And the GI50 (SF-539 CNS)?
**A.** 6.92 µM

**Q.** What about the TGI (SF-539 CNS) of the same compound?
**A.** 27.7 µM

**Q.** And the GI50 (SK-OV-3 ovarian)?
**A.** 9.09 µM

**Q.** What about the TGI (SK-OV-3 ovarian) of the same compound?
**A.** 40.6 µM

**Q.** And the GI50 (SF-295 CNS)?
**A.** 3.63 µM

**Q.** And the TGI (SF-295 CNS)?
**A.** 19.5 µM

**Q.** What about the GI50 (K-562 leukemia) of the same compound?
**A.** 3.77 µM

**Q.** And the TGI (K-562 leukemia)?
**A.** > 100 µM

**Q.** And the GI50 (OVCAR-8 ovarian)?
**A.** 8.56 µM

**Q.** And the TGI (OVCAR-8 ovarian)?
**A.** > 100 µM

**Q.** What about the GI50 (KM12 colon) of the same compound?
**A.** 16.5 µM

**Q.** What about the TGI (KM12 colon) of the same compound?
**A.** > 100 µM

**Q.** What about the GI50 (ACHN renal) of the same compound?
**A.** 4.95 µM

**Q.** What about the TGI (ACHN renal) of the same compound?
**A.** 62.6 µM

**Q.** And the GI50 (HS 578T breast)?
**A.** 1.95 µM

**Q.** And the TGI (HS 578T breast)?
**A.** 8.53 µM

**Q.** And the GI50 (SNB-19 CNS)?
**A.** 5.97 µM

**Q.** And the TGI (SNB-19 CNS)?
**A.** 45.5 µM

**Q.** And the GI50 (IGROV1 ovarian)?
**A.** 12.2 µM

**Q.** And the TGI (IGROV1 ovarian)?
**A.** 52.3 µM

**Q.** And the GI50 (MDA-MB-435)?
**A.** 9.55 µM

**Q.** What about the TGI (MDA-MB-435) of the same compound?
**A.** > 100 µM

**Q.** What about the GI50 (SR leukemia) of the same compound?
**A.** 2.09 µM

**Q.** And the TGI (SR leukemia)?
**A.** 7.57 µM

**Q.** What about the GI50 (M14 melanoma) of the same compound?
**A.** 11.3 µM

**Q.** And the TGI (M14 melanoma)?
**A.** > 100 µM

**Q.** And the GI50 (T-47D breast)?
**A.** 2.83 µM

**Q.** And the TGI (T-47D breast)?
**A.** 26.5 µM

**Q.** And the GI50 (MCF7 breast)?
**A.** 5.62 µM

**Q.** And the TGI (MCF7 breast)?
**A.** > 100 µM

**Q.** And the GI50 (SF-268 CNS)?
**A.** 7.58 µM

**Q.** And the TGI (SF-268 CNS)?
**A.** 35.8 µM
